The values below come from patent US12325697B2 (Nimbus Clio, Inc., priority 2021, dated 2025).

Molecules are shown by their SMILES. Counter-ions that a name gives are not always drawn.

Assay [1] has as its system Jurkat (clone E6-1) cells, NFAT luciferase reporter. The assay is described as follows: Jurkat Reporter Assay (NFAT Luciferase). It is filed as cell-based. As to conditions: Homo sapiens, anti-CD3 stimulation, 6 hr, read-out: Jurkat NFAT EC50. A general note: In a reporter assay the amount or activity of a reporter protein is the signal.
Assay [2] has as its target Recombinant human Cbl-b (aa 36-427) (Homo sapiens (Human), UniProt Q13191). The assay is described as follows: Cbl-b Biochemical Assay (TR-FRET). As to conditions: read-out: TR-FRET hCbl-b IC50. An outline of the steps: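 Two-step TR-FRET: 6 nM biotinylated Cbl-b preincubated 30-60 min with compound, then 60 min at RT with 1-2.5 nM Src-Zap70 and 0.5 mM ATP in HEPES pH 7.0 buffer, 1% DMSO. Stopped with 5 mM EDTA plus 100 nM UBE2D2-Ub-FL-BODIPY and 1 nM streptavidin-Tb, 60 min; 520 nm signal; IC50 from 4-parameter fit.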
(In general: TR-FRET usually uses a lanthanide donor and a delayed reading to cut background.)

Sequence of Recombinant human Cbl-b (aa 36-427) (Q13191 36-427): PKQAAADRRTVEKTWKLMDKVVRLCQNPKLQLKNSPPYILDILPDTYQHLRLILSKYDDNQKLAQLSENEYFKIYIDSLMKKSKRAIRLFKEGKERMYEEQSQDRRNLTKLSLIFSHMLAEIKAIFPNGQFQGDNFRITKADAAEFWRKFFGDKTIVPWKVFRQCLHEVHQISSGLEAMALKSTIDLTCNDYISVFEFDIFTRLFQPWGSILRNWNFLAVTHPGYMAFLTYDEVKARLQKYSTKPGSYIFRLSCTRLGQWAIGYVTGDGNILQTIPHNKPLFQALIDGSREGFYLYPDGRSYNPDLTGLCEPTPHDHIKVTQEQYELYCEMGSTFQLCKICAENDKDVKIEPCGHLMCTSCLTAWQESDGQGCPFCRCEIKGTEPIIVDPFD

Broadly, the EC50 is the concentration needed to bring the measured effect to its halfway point. By IC50 is commonly meant the concentration that gives 50% inhibition. For the compound `Cn1cnnc1-c1ccccc1-c1cccc(N2Cc3c(cc(COC4CCOCC4)cc3C(F)(F)F)C2=O)c1` [BD-3, 2-(2′-(4-Methyl-4H-1,2,4-triazol-3-yl)-[1,1′-biphenyl]-3-yl)-6-(((tetrahydro-2H-pyran-4-yl)oxy)methyl)-4-(trifluoromethyl)isoindolin-1-one], the EC50 in assay [1] lay in the range of 1000 to 10000 nM. In assay [2], the IC50 is at most 200 nM.
The like results for `Cn1cnnc1-c1cc(C#N)ccc1-c1cc(C2CC2)nc(N2Cc3c(cccc3C(F)(F)F)C2=O)c1` [AEG-3, 4-{2-Cyclopropyl-6-[1-oxo-4-(trifluoromethyl)-3H-isoindol-2-yl]pyridin-4-yl}-3-(4-methyl-1,2,4-triazol-3-yl)benzonitrile] were, in that order, 200 to 1000 nM and at most 200 nM.
The like results for `CCNc1cc(-c2ccc(CO)cc2-c2nncn2C)cc(N2Cc3c(cccc3C(F)(F)F)C2=O)n1` [AFD-1, 2-[6-(ethylamino)-4-[4-(hydroxymethyl)-2-(4-methyl-1,2,4-triazol-3-yl)phenyl]pyridin-2-yl]-4-(trifluoromethyl)-3H-isoindol-1-one] were, in that order, 10000 to 50000 nM and at most 200 nM.
The like results for `CCNc1cc(-c2ccccc2-c2nncn2C)cc(N2Cc3c(cc(CN4CC[C@@H](O)C4)cc3C(F)(F)F)C2=O)n1` [AT-1, (R)-2-(6-(Ethylamino)-4-(2-(4-methyl-4H-1,2,4-triazol-3-yl)phenyl)pyridin-2-yl)-6-((3-hydroxypyrrolidin-1-yl)methyl)-4-(trifluoromethyl)isoindolin-1-one] were, in that order, 200 to 1000 nM and at most 200 nM.
For the compound `CCNc1cc(-c2c(-c3nncn3C)cnn2C)cc(N2Cc3ccc(CNCC4(O)CCC4)cc3C2=O)n1` [AEE-2, 2-[6-(Ethylamino)-4-[2-methyl-4-(4-methyl-1,2,4-triazol-3-yl)pyrazol-3-yl]pyridin-2-yl]-6-({[(1-hydroxycyclobutyl)methyl]amino}methyl)-3H-isoindol-1-one], the EC50 in assay [1] lay within 200 to 1000 nM. Also, in assay [2], the IC50 was at most 200 nM.
In the case of `CCNc1cc(-c2ccccc2-c2nncn2C)cc(N2Cc3c(cc(CN4CCC(F)(F)[C@H](C)C4)cc3C(F)(F)F)C2=O)n1` [AU-2, (R)-6-((4,4-Difluoro-3-methylpiperidin-1-yl)methyl)-2-(6-(ethylamino)-4-(2-(4-methyl-4H-1,2,4-triazol-3-yl)phenyl)pyridin-2-yl)-4-(trifluoromethyl)isoindolin-1-one], the EC50 in assay [1] lay within 200 to 1000 nM. Moreover, the IC50 in assay [2] is at most 200 nM.
Take `CCNc1cc(-c2c(-c3nncn3C)cnn2C)cc(N2Cc3c(cc(COc4cnoc4)cc3C(F)(F)F)C2=O)n1` [ADE-2, 2-[6-(Ethylamino)-4-[2-methyl-4-(4-methyl-1,2,4-triazol-3-yl)pyrazol-3-yl]pyridin-2-yl]-6-[(1,2-oxazol-4-yloxy)methyl]-4-(trifluoromethyl)-3H-isoindol-1-one]: the EC50 in assay [1] fell in the range of 1000 to 10000 nM. In assay [2], the 50% inhibitory concentration (IC50) is at most 200 nM.
The like results for `CCNc1cc(-c2ccccc2-c2nncn2C)cc(N2Cc3c(cc(COC4CCNCC4)cc3C(F)(F)F)C2=O)n1` [BA-4, 2-(6-(Ethylamino)-4-(2-(4-methyl-4H-1,2,4-triazol-3-yl)phenyl)pyridin-2-yl)-6-((piperidin-4-yloxy)methyl)-4-(trifluoromethyl)isoindolin-1-one, HCl] were, in that order, 1000 to 10000 nM and at most 200 nM.
In the same order, the values of `CCNc1cc(-c2nn(CC(C)C)cc2-c2nncn2C)cc(N2Cc3c(cccc3C(F)(F)F)C2=O)n1` [AGX-8, 2-[6-(Ethylamino)-4-[4-(4-methyl-1,2,4-triazol-3-yl)-1-(2-methylpropyl)pyrazol-3-yl]pyridin-2-yl]-4-(trifluoromethyl)-3H-isoindol-1-one] are 10000 to 50000 nM and 10000 to 50000 nM.
In the case of `CN(Cc1cc2c(c(C(F)(F)F)c1)CN(c1cc(-c3ccc(C#N)cc3-c3nncn3C)cc(C3CC3)n1)C2=O)C(=O)OC(C)(C)C` [AGY-3, tert-Butyl N-[(2-{4-[4-cyano-2-(4-methyl-1,2,4-triazol-3-yl)phenyl]-6-cyclopropylpyridin-2-yl}-3-oxo-7-(trifluoromethyl)-1H-isoindol-5-yl)methyl]-N-methylcarbamate], the concentration giving a half-maximal response (EC50) in assay [1] was 200 to 1000 nM. Further, in assay [2], the IC50 is at most 200 nM.
The like results for `C[C@@H](Cc1nncn1C)c1cc(NS(C)(=O)=O)nc(N2Cc3c(cccc3C(F)(F)F)C2=O)c1` [AHL-8, N-[4-[(2S)-1-(4-Methyl-1,2,4-triazol-3-yl)propan-2-yl]-6-[1-oxo-4-(trifluoromethyl)-3H-isoindol-2-yl]pyridin-2-yl]methanesulfonamide] were, in that order, 10000 to 50000 nM and 10000 to 50000 nM.
In the same order, the values of `Cn1cnnc1-c1ccccc1-c1cc(N2Cc3c(cc(CO)cc3C(F)(F)F)C2=O)nc(N2Cc3c(cc(CO)cc3C(F)(F)F)C2=O)c1` [ACX-2, 6-(Hydroxymethyl)-2-{6-[6-(hydroxymethyl)-1-oxo-4-(trifluoromethyl)-3H-isoindol-2-yl]-4-[2-(4-methyl-1,2,4-triazol-3-yl)phenyl]pyridin-2-yl}-4-(trifluoromethyl)-3H-isoindol-1-one] are 10000 to 50000 nM and 10000 to 50000 nM.
The like results for `Cc1ccc2c(c1)C(=O)N(c1cc(-c3ccc(F)cc3-c3nncn3C)cc(C(C)C)n1)C2` [AFY-1, 2-(4-(4-fluoro-2-(4-methyl-4H-1,2,4-triazol-3-yl)phenyl)-6-isopropylpyridin-2-yl)-6-methylisoindolin-1-one] were, in that order, 10000 to 50000 nM and 1000 to 10000 nM.
As for `COc1ccc2c(c1)CN(c1cc(-c3ccccc3-c3nncn3C)cc(C3CC3)n1)C2=O` [AER-1], the concentration for a half-maximal effect (EC50) in assay [1] was in the range of 10000 to 50000 nM. In addition, the IC50 in assay [2] was at most 200 nM.
In the same order, the values of `Cn1cnnc1-c1cc(C#N)ccc1-c1cccc(C(=O)Nc2cc(CN[C@@H]3CCC[C@@H]3O)cc(C(F)(F)F)c2N)c1` [ADW-5, N-[2-Amino-5-({[(1R,2S)-2-hydroxycyclopentyl]amino}methyl)-3-(trifluoromethyl)phenyl]-4′-cyano-2′-(4-methyl-1,2,4-triazol-3-yl)-[1,1′-biphenyl]-3-carboxamide] are 10000 to 50000 nM and 1000 to 10000 nM.
In the same order, the values of `Cn1cnnc1-c1ccc(C#N)cc1-c1cccc(N2Cc3c(cc(CO)cc3C(F)(F)F)C2=O)c1` [ADM-6, 3′-[6-(Hydroxymethyl)-1-oxo-4-(trifluoromethyl)-3H-isoindol-2-yl]-6-(4-methyl-1,2,4-triazol-3-yl)-[1,1′-biphenyl]-3-carbonitrile] are 10000 to 50000 nM and 200 to 1000 nM.
The like results for `Cn1cnnc1-c1ccccc1-c1cccc(N2Cc3c(cc(CO[C@@H]4CCC[C@H]4O)cc3C(F)(F)F)C2=O)c1` [ADL-4, 6-({[(1R,2R)-2-Hydroxycyclopentyl]oxy}methyl)-2-[2′-(4-methyl-1,2,4-triazol-3-yl)-[1,1′-biphenyl]-3-yl]-4-(trifluoromethyl)-3H-isoindol-1-one] were, in that order, 1000 to 10000 nM and at most 200 nM.
With `CCNc1cc(-c2ccc(C#N)cc2-c2nncn2C)cc(N2Cc3c(cc(N4CCCC4)cc3C(F)(F)F)C2=O)n1` [AEP-2, 4-[2-(Ethylamino)-6-[1-oxo-6-(pyrrolidin-1-yl)-4-(trifluoromethyl)-3H-isoindol-2-yl]pyridin-4-yl]-3-(4-methyl-1,2,4-triazol-3-yl)benzonitrile], the EC50 in assay [1] fell in the range of 10000 to 50000 nM. In addition, the IC50 in assay [2] is 200 to 1000 nM.
The like results for `CCNc1cc(-c2ccc(OC)cc2-c2nncn2C)cc(N2Cc3c(cccc3C(F)(F)F)C2=O)n1` [AFB-8, 2-[6-(Ethylamino)-4-[4-methoxy-2-(4-methyl-1,2,4-triazol-3-yl)phenyl]pyridin-2-yl]-4-(trifluoromethyl)-3H-isoindol-1-one] were, in that order, 200 to 1000 nM and at most 200 nM.
Regarding `CCCn1cc(-c2nncn2C)c(-c2cc(NCC)nc(N3Cc4c(cccc4C(F)(F)F)C3=O)c2)n1` [AHD-9, 2-[6-(Ethylamino)-4-[4-(4-methyl-1,2,4-triazol-3-yl)-1-propylpyrazol-3-yl]pyridin-2-yl]-4-(trifluoromethyl)-3H-isoindol-1-one], the EC50 in assay [1] was in the range of 10000 to 50000 nM. Also, the IC50 in assay [2] fell in the range of 10000 to 50000 nM.
Consider `CN1CCC(OCc2cc3c(c(C(F)(F)F)c2)CN(c2cccc(-c4ccccc4-c4nncn4C)c2)C3=O)CC1` [BC-4, 2-(2′-(4-Methyl-4H-1,2,4-triazol-3-yl)-[1,1′-biphenyl]-3-yl)-6-(((1-methylpiperidin-4-yl)oxy)methyl)-4-(trifluoromethyl)isoindolin-1-one], for which the EC50 in assay [1] was 1000 to 10000 nM. Also, the IC50 in assay [2] lay within 200 to 1000 nM.
In the same order, the values of `C[C@H](Cc1nncn1C)c1cc(NS(C)(=O)=O)nc(N2Cc3c(cccc3C(F)(F)F)C2=O)c1` [AHK-1, N-[4-[(2R)-1-(4-Methyl-1,2,4-triazol-3-yl)propan-2-yl]-6-[1-oxo-4-(trifluoromethyl)-3H-isoindol-2-yl]pyridin-2-yl]methanesulfonamide] are 10000 to 50000 nM and 200 to 1000 nM.
In the same order, the values of `CCNc1cc(-c2c(-c3nncn3C)cnn2C)cc(N2Cc3c(cc(CO[C@H]4CCC[C@H]4O)cc3C(F)(F)F)C2=O)n1` [ADI-1, 2-[6-(Ethylamino)-4-[2-methyl-4-(4-methyl-1,2,4-triazol-3-yl)pyrazol-3-yl]pyridin-2-yl]-6-({[(1S,2R)-2-hydroxycyclopentyl]oxy}methyl)-4-(trifluoromethyl)-3H-isoindol-1-one] are 200 to 1000 nM and at most 200 nM.
In the same order, the values of `Cn1cnnc1-c1ccccc1-c1cccc(N2Cc3c(cc(CO[C@@H]4CCC[C@@H]4O)cc3C(F)(F)F)C2=O)c1` [AV-3, 6-((((1R,2S)-2-Hydroxycyclopentyl)oxy)methyl)-2-(2′-(4-methyl-4H-1,2,4-triazol-3-yl)-[1,1′-biphenyl]-3-yl)-4-(trifluoromethyl)isoindolin-1-one] are 1000 to 10000 nM and 200 to 1000 nM.
